Assay results reported in paper PMC5218480 (PLoS ONE, 2017).

System: MV-4-11 cells
Assay: Gene expression microarray analysis (Affymetrix PrimeView) and GSEA
Type: cell-based, human
Design: RFU PODN (11730768_x_at) / Fold change /veh PODN (11730768_x_at) / RFU LINC00158 (11744669_a_at) / Fold change /veh LINC00158 (11744669_a_at) / RFU DUSP10 (11751237_a_at) / Fold change /veh DUSP10 (11751237_a_at) / RFU ID3 (11757404_x_at) / Fold change /veh ID3 (11757404_x_at) / RFU PLEKHG5 (11737974_s_at) / Fold change /veh PLEKHG5 (11737974_s_at) / RFU LRRC4B (11730491_at) / Fold change /veh LRRC4B (11730491_at) / RFU GIMAP4 (11747438_a_at) / Fold change /veh GIMAP4 (11747438_a_at) / RFU KRT8 (11758183_x_at) / Fold change /veh KRT8 (11758183_x_at) / RFU CNN1 (11734310_a_at) / Fold change /veh CNN1 (11734310_a_at) / RFU VPS37D (11726825_at) / Fold change /veh VPS37D (11726825_at) / RFU C10orf10 (11716522_x_at) / Fold change /veh C10orf10 (11716522_x_at) / RFU KIR2DL2 /// KIR2DL4 /// KIR2DL5A /// KIR2DL5B /// KIR2DS1 /// KIR2DS2 /// KIR2DS3 /// KIR2DS4 /// KIR3DL3 /// KIR3DL3 /// KIR3DS1 (11738374_at) / Fold change /veh KIR2DL2 /// KIR2DL4 /// KIR2DL5A /// KIR2DL5B /// KIR2DS1 /// KIR2DS2 /// KIR2DS3 /// KIR2DS4 /// KIR3DL3 /// KIR3DL3 /// KIR3DS1 (11738374_at) / RFU C1QL1 (11718748_at) / Fold change /veh C1QL1 (11718748_at) / RFU TMPRSS4 (11747572_a_at) / Fold change /veh TMPRSS4 (11747572_a_at) / RFU HAMP (11756126_x_at) / Fold change /veh HAMP (11756126_x_at) / RFU RNFT2 (11725882_a_at) / Fold change /veh RNFT2 (11725882_a_at) / RFU NR4A2 (11747474_a_at) / Fold change /veh NR4A2 (11747474_a_at) / RFU ABCC12 (11746883_a_at) / Fold change /veh ABCC12 (11746883_a_at) / RFU TMEM136 (11760407_x_at) / Fold change /veh TMEM136 (11760407_x_at) / RFU CLDN22 /// WWC2 (11732394_at) / Fold change /veh CLDN22 /// WWC2 (11732394_at) / RFU HLA-DPB1 (11760878_x_at) / Fold change /veh HLA-DPB1 (11760878_x_at) / RFU SPINT1 (11716480_a_at) / Fold change /veh SPINT1 (11716480_a_at) / RFU GAP43 (11754022_s_at) / Fold change /veh GAP43 (11754022_s_at) / RFU A4GNT (11735810_at) / Fold change /veh A4GNT (11735810_at) / RFU PRB3 (11715151_x_at) / Fold change /veh PRB3 (11715151_x_at) / RFU TUBB4B (11761932_at) / Fold change /veh TUBB4B (11761932_at) / RFU CAPN14 (11732068_a_at) / Fold change /veh CAPN14 (11732068_a_at) / RFU TMCC2 (11721928_a_at) / Fold change /veh TMCC2 (11721928_a_at) / RFU IRGQ (11745062_a_at) / Fold change /veh IRGQ (11745062_a_at) / RFU FAM174B (11720279_a_at) / Fold change /veh FAM174B (11720279_a_at) / RFU TMPRSS4 (11748680_a_at) / Fold change /veh TMPRSS4 (11748680_a_at) / RFU FAM212B (11763350_a_at) / Fold change /veh FAM212B (11763350_a_at) / RFU PLEKHG5 (11743358_a_at) / Fold change /veh PLEKHG5 (11743358_a_at) / RFU ZSCAN30 (11745921_a_at) / Fold change /veh ZSCAN30 (11745921_a_at) / RFU CMKLR1 (11741424_a_at) / Fold change /veh CMKLR1 (11741424_a_at) / RFU LOC101060620 /// MAPK8IP1 (11723275_at) / Fold change /veh LOC101060620 /// MAPK8IP1 (11723275_at) / RFU SPTSSB (11747773_x_at) / Fold change /veh SPTSSB (11747773_x_at) / RFU PRSS12 (11739890_at) / Fold change /veh PRSS12 (11739890_at) / RFU BIN1 (11741810_x_at) / Fold change /veh BIN1 (11741810_x_at) / RFU WNT11 (11732464_a_at) / Fold change /veh WNT11 (11732464_a_at) / RFU C10orf10 (11716521_a_at) / Fold change /veh C10orf10 (11716521_a_at) / RFU C5orf56 (11738089_at) / Fold change /veh C5orf56 (11738089_at) / RFU CYB561 (11721691_x_at) / Fold change /veh CYB561 (11721691_x_at) / RFU ANKRD19P (11752326_a_at) / Fold change /veh ANKRD19P (11752326_a_at) / RFU OR2T12 /// OR2T33 /// OR2T8 (11738714_s_at) / Fold change /veh OR2T12 /// OR2T33 /// OR2T8 (11738714_s_at) / RFU VCAN (11748164_a_at) / Fold change /veh VCAN (11748164_a_at) / RFU JSRP1 (11732532_at) / Fold change /veh JSRP1 (11732532_at) / RFU KRTAP10-11 (11738290_x_at) / Fold change /veh KRTAP10-11 (11738290_x_at) / RFU MYO3A (11730013_a_at) / Fold change /veh MYO3A (11730013_a_at) / RFU EBF3 (11725865_a_at) / Fold change /veh EBF3 (11725865_a_at) / RFU CAMK2N1 (11719241_x_at) / Fold change /veh CAMK2N1 (11719241_x_at) / RFU C5orf56 (11738088_a_at) / Fold change /veh C5orf56 (11738088_a_at) / RFU OLFML3 (11715873_a_at) / Fold change /veh OLFML3 (11715873_a_at) / RFU LOC100653217 /// NTM (11731650_a_at) / Fold change /veh LOC100653217 /// NTM (11731650_a_at) / RFU MAPK11 (11762145_a_at) / Fold change /veh MAPK11 (11762145_a_at) / RFU FIZ1 (11724087_x_at) / Fold change /veh FIZ1 (11724087_x_at) / RFU OASL (11726364_x_at) / Fold change /veh OASL (11726364_x_at) / RFU SOX15 (11748057_x_at) / Fold change /veh SOX15 (11748057_x_at) / RFU CD79A (11719716_a_at) / Fold change /veh CD79A (11719716_a_at) / RFU HIST1H1D (11736915_at) / Fold change /veh HIST1H1D (11736915_at) / RFU CASKIN2 (11723855_a_at) / Fold change /veh CASKIN2 (11723855_a_at) / RFU LOC730098 (11760151_x_at) / Fold change /veh LOC730098 (11760151_x_at) / RFU OR4N2 (11742367_at) / Fold change /veh OR4N2 (11742367_at) / RFU PRRT2 (11749266_a_at) / Fold change /veh PRRT2 (11749266_a_at) / RFU SNX32 (11753110_a_at) / Fold change /veh SNX32 (11753110_a_at) / RFU CDHR5 (11726645_a_at) / Fold change /veh CDHR5 (11726645_a_at) / RFU RCAN1 (11760418_a_at) / Fold change /veh RCAN1 (11760418_a_at) / RFU FAM167A (11723789_a_at) / Fold change /veh FAM167A (11723789_a_at) / RFU FAM26E (11764081_at) / Fold change /veh FAM26E (11764081_at) / RFU ISYNA1 (11749810_s_at) / Fold change /veh ISYNA1 (11749810_s_at) / RFU ACY1 (11761880_at) / Fold change /veh ACY1 (11761880_at) / RFU 11764098_at / Fold change /veh 11764098_at / RFU SAMD14 (11745864_x_at) / Fold change /veh SAMD14 (11745864_x_at) / RFU NPB (11741838_a_at) / Fold change /veh NPB (11741838_a_at) / RFU TMPRSS6 (11731388_a_at) / Fold change /veh TMPRSS6 (11731388_a_at) / RFU KRTAP10-2 (11738614_at) / Fold change /veh KRTAP10-2 (11738614_at) / RFU ARHGAP8 /// PRR5-ARHGAP8 (11727945_x_at) / Fold change /veh ARHGAP8 /// PRR5-ARHGAP8 (11727945_x_at) / RFU KRTAP5-7 /// NADSYN1 (11734609_at) / Fold change /veh KRTAP5-7 /// NADSYN1 (11734609_at) / RFU RASL12 (11751679_a_at) / Fold change /veh RASL12 (11751679_a_at) / RFU CDKN2B (11736163_a_at) / Fold change /veh CDKN2B (11736163_a_at) / RFU PRF1 (11729649_at) / Fold change /veh PRF1 (11729649_at) / RFU, ZNF638 /// ZNF638-IT1 / Fold change vs veh, ZNF638 /// ZNF638-IT1 / RFU, PANK3 / Fold change vs veh, PANK3 / RFU, SH3YL1 / Fold change vs veh, SH3YL1 / RFU, ZEB2 / Fold change vs veh, ZEB2 / RFU, NRIP1 / Fold change vs veh, NRIP1 / RFU, PTTG1IP / Fold change vs veh, PTTG1IP / RFU, CAPN2 / Fold change vs veh, CAPN2 / RFU, MED14 / Fold change vs veh, MED14 / RFU, SNORA58 / Fold change vs veh, SNORA58 / RFU, C1orf63 / Fold change vs veh, C1orf63 / RFU, LRRFIP1 / Fold change vs veh, LRRFIP1 / RFU, NDUFAF7 / Fold change vs veh, NDUFAF7 / RFU, SLC12A2 / Fold change vs veh, SLC12A2 / RFU, IBTK / Fold change vs veh, IBTK / RFU, ESF1 / Fold change vs veh, ESF1 / Fold change vs veh, TMEM50B / RFU, TAOK1 / Fold change vs veh, TAOK1 / RFU, ACBD3 / Fold change vs veh, ACBD3 / RFU, TMA16 / Fold change vs veh, TMA16 / RFU, RWDD3 / Fold change vs veh, RWDD3 / RFU, BCAT1 / Fold change vs veh, BCAT1 / RFU, EDEM3 / Fold change vs veh, EDEM3 / RFU, TMEM33 / Fold change vs veh, TMEM33 / RFU, WDR75 / Fold change vs veh, WDR75 / RFU, AHCTF1 / Fold change vs veh, AHCTF1 / RFU, TFRC / Fold change vs veh, TFRC / RFU, ZDHHC17 / Fold change vs veh, ZDHHC17 / RFU, NOM1 / Fold change vs veh, NOM1 / RFU, ARL8B / Fold change vs veh, ARL8B / RFU, ZBTB11 / Fold change vs veh, ZBTB11 / RFU, TAMM41 / Fold change vs veh, TAMM41 / RFU, KIAA1704 /// LOC100996395 / Fold change vs veh, KIAA1704 /// LOC100996395 / RFU, ING1 / Fold change vs veh, ING1 / RFU, TRMT61B / Fold change vs veh, TRMT61B / RFU, FUBP3 / Fold change vs veh, FUBP3 / RFU, TP53 / Fold change vs veh, TP53 / RFU, TNKS2 / Fold change vs veh, TNKS2 / RFU, ZFP14 / Fold change vs veh, ZFP14 / RFU, ACTR2 / Fold change vs veh, ACTR2 / RFU, PPP3R1 / Fold change vs veh, PPP3R1 / RFU, PIK3R1 / Fold change vs veh, PIK3R1 / RFU, HNRNPA1 / Fold change vs veh, HNRNPA1 / RFU, RNF170 / Fold change vs veh, RNF170 / RFU, ZNF28 / Fold change vs veh, ZNF28 / RFU, RNGTT / Fold change vs veh, RNGTT / RFU, OGT / Fold change vs veh, OGT / RFU, BRD1 / Fold change vs veh, BRD1 / RFU, MARS / Fold change vs veh, MARS / RFU, ZNF655 / Fold change vs veh, ZNF655 / RFU, FAHD1 / Fold change vs veh, FAHD1 / RFU, BDP1 / Fold change vs veh, BDP1 / RFU, LRRCC1 / Fold change vs veh, LRRCC1 / RFU, ARID1A / Fold change vs veh, ARID1A / RFU, ZNF146 / Fold change vs veh, ZNF146 / RFU, ZNF330 / Fold change vs veh, ZNF330 / RFU, GPN3 / Fold change vs veh, GPN3 / RFU, C9orf123 / Fold change vs veh, C9orf123 / RFU, N4BP2L2 / Fold change vs veh, N4BP2L2 / RFU, ARFIP1 / Fold change vs veh, ARFIP1 / RFU, FAM179B / Fold change vs veh, FAM179B / RFU, BCL10 / Fold change vs veh, BCL10 / RFU, UHRF1BP1L / Fold change vs veh, UHRF1BP1L / RFU, BET1 / Fold change vs veh, BET1 / RFU, CNOT2 / Fold change vs veh, CNOT2 / RFU, ZNF268 / Fold change vs veh, ZNF268 / Fold change vs veh, ZNF507 / RFU, DGCR2 / Fold change vs veh, DGCR2 / RFU, WDSUB1 / Fold change vs veh, WDSUB1 / Fold change vs veh, HSP90B1 /// MIR3652 / RFU, ADSS / Fold change vs veh, ADSS / RFU, GK / Fold change vs veh, GK / RFU, ZNF148 / Fold change vs veh, ZNF148 / RFU, TAF9 / Fold change vs veh, TAF9 / RFU, SLC1A5 / Fold change vs veh, SLC1A5 / RFU, SLMO2 / Fold change vs veh, SLMO2 / RFU, ABCC4 / Fold change vs veh, ABCC4 / RFU, LOC101060439 /// RAP1B / Fold change vs veh, LOC101060439 /// RAP1B / RFU, RFX7 / Fold change vs veh, RFX7 / RFU, GTPBP10 / Fold change vs veh, GTPBP10 / RFU, CNEP1R1 / Fold change vs veh, CNEP1R1 / RFU, BIVM-ERCC5 /// ERCC5 / Fold change vs veh, BIVM-ERCC5 /// ERCC5 / RFU, ILF3 / Fold change vs veh, ILF3 / RFU 11762660_at / Fold change /veh 11762660_at / RFU VCAN (11757783_s_at) / Fold change /veh VCAN (11757783_s_at) / RFU DDX43 (11728927_at) / Fold change /veh DDX43 (11728927_at) / RFU KRT8 (11758188_x_at) / Fold change /veh KRT8 (11758188_x_at) / RFU NKD1 (11759106_at) / Fold change /veh NKD1 (11759106_at) / RFU SRD5A1 (11742802_a_at) / Fold change /veh SRD5A1 (11742802_a_at) / RFU TPSAB1 /// TPSB2 (11721975_s_at) / Fold change /veh TPSAB1 /// TPSB2 (11721975_s_at) / RFU GSTM3 (11746129_a_at) / Fold change /veh GSTM3 (11746129_a_at) / RFU IL23R (11737362_x_at) / Fold change /veh IL23R (11737362_x_at) / RFU TMEM51 (11727254_a_at) / Fold change /veh TMEM51 (11727254_a_at) / RFU PIWIL2 (11732686_x_at) / Fold change /veh PIWIL2 (11732686_x_at) / RFU ORM1 (11744905_x_at) / Fold change /veh ORM1 (11744905_x_at) / RFU CCDC152 (11743942_at) / Fold change /veh CCDC152 (11743942_at) / RFU ECM1 (11717891_a_at) / Fold change /veh ECM1 (11717891_a_at) / RFU IL23R (11748794_a_at) / Fold change /veh IL23R (11748794_a_at) / RFU TNFAIP8L3 (11732012_x_at) / Fold change /veh TNFAIP8L3 (11732012_x_at) / RFU MBOAT4 (11741988_at) / Fold change /veh MBOAT4 (11741988_at) / RFU 11764193_at / Fold change /veh 11764193_at / RFU TMEM53 (11763286_at) / Fold change /veh TMEM53 (11763286_at) / RFU MAGEB2 (11727129_at) / Fold change /veh MAGEB2 (11727129_at) / RFU TMEM200A (11744735_a_at) / Fold change /veh TMEM200A (11744735_a_at) / RFU CCDC152 (11751479_a_at) / Fold change /veh CCDC152 (11751479_a_at) / RFU FAM211A (11726209_a_at) / Fold change /veh FAM211A (11726209_a_at) / RFU RGS16 (11746705_a_at) / Fold change /veh RGS16 (11746705_a_at) / RFU VCAN (11755009_s_at) / Fold change /veh VCAN (11755009_s_at) / RFU RHOB (11743442_s_at) / Fold change /veh RHOB (11743442_s_at) / RFU RGS16 (11720943_a_at) / Fold change /veh RGS16 (11720943_a_at) / RFU RGS16 (11720944_at) / Fold change /veh RGS16 (11720944_at) / RFU, VPS4B / Fold change vs veh, VPS4B / RFU, CREB1 / Fold change vs veh, CREB1 / RFU, DNAJC13 / Fold change vs veh, DNAJC13 / RFU, GNAQ / Fold change vs veh, GNAQ / RFU, CDK5R1 / Fold change vs veh, CDK5R1 / RFU, ZRANB3 / Fold change vs veh, ZRANB3 / RFU, CUL4A / Fold change vs veh, CUL4A / RFU, CCNY / Fold change vs veh, CCNY / RFU, UFL1 / Fold change vs veh, UFL1 / RFU, COG3 / Fold change vs veh, COG3 / RFU, DIAPH2 / Fold change vs veh, DIAPH2 / RFU, SKA2 / Fold change vs veh, SKA2 / RFU, AFF3 / Fold change vs veh, AFF3 / RFU, LMF1 / Fold change vs veh, LMF1 / RFU, IPO11 / Fold change vs veh, IPO11 / RFU, DFFB / Fold change vs veh, DFFB / RFU, FOXP1 / Fold change vs veh, FOXP1 / RFU, CARD8 / Fold change vs veh, CARD8 / RFU, STRN3 / Fold change vs veh, STRN3 / RFU, ADK / Fold change vs veh, ADK / RFU, RASSF2 / Fold change vs veh, RASSF2 / RFU, WIPF1 / Fold change vs veh, WIPF1 / RFU, LARP1B / Fold change vs veh, LARP1B / RFU, RASA1 / Fold change vs veh, RASA1 / RFU, RB1 / Fold change vs veh, RB1 / RFU, PPFIA1 / Fold change vs veh, PPFIA1 / RFU, MAT2A / Fold change vs veh, MAT2A / RFU, CCT5 / Fold change vs veh, CCT5 / RFU, WDR92 / Fold change vs veh, WDR92 / RFU, CUX1 / Fold change vs veh, CUX1 / RFU, TTC7A / Fold change vs veh, TTC7A / RFU, TMEM135 / Fold change vs veh, TMEM135 / RFU, DEPTOR / Fold change vs veh, DEPTOR / RFU, CPM / Fold change vs veh, CPM / RFU, DNAJB6 / Fold change vs veh, DNAJB6 / RFU, CACNA2D3 / Fold change vs veh, CACNA2D3 / RFU, DTX4 / Fold change vs veh, DTX4 / RFU, TFCP2 / Fold change vs veh, TFCP2 / RFU, GMCL1 /// GMCL1P1 / Fold change vs veh, GMCL1 /// GMCL1P1 / RFU, AEBP2 / Fold change vs veh, AEBP2 / RFU, SNHG1 /// SNORD22 /// SNORD25 /// SNORD26 /// SNORD27 /// SNORD28 /// SNORD29 /// SNORD31 / Fold change vs veh, SNHG1 /// SNORD22 /// SNORD25 /// SNORD26 /// SNORD27 /// SNORD28 /// SNORD29 /// SNORD31 / Fold change (Aza/veh), C12orf56 (ProbeSet 11735607_a_at) / Fold change (ACY-1035/veh), C12orf56 (ProbeSet 11735607_a_at) / Fold change (Aza/veh), FGFR1OP (ProbeSet 11751329_s_at) / Fold change (ACY-1035/veh), FGFR1OP (ProbeSet 11751329_s_at) / Fold change (Aza/veh), VPS36 (ProbeSet 11739960_a_at) / Fold change (ACY-1035/veh), VPS36 (ProbeSet 11739960_a_at) / RFU SYPL1 (11715823_x_at) / Fold change /veh SYPL1 (11715823_x_at) / RFU IGFBP7 (11715501_s_at) / Fold change /veh IGFBP7 (11715501_s_at) / RFU REEP3 (11722064_at) / Fold change /veh REEP3 (11722064_at) / RFU IGLL1 (11728026_x_at) / Fold change /veh IGLL1 (11728026_x_at): dose or concentration left out as unconfirmed
Details: ProbeSet 11732154_at; LIST B

With `Nc1ncn([C@@H]2O[C@H](CO)[C@@H](O)[C@H]2O)c(=O)n1` [azacitidine] the “RFU, OGT” value was 289.66 RFU.
